Test results from BindingDB's records for patent US20240376090 (Arena Pharmaceuticals, 2024).

Target: 5-hydroxytryptamine receptor 2A (Homo sapiens, UniProt P28223)
Assay: Radioligand Binding Assay Protocol
Method: Competition binding experiments consisted of addition of 5 μL of serially diluted test compound, 50 μL of radioligand stock diluted in Assay Buffer (20 mM HEPES, pH 7.4, 10 mM MgCl2), and 145 μL of diluted membrane expressing the receptor of interest to 96-well microtiter plates, which were then incubated for one hour at room temperature. Assay incubations were terminated by rapid filtration through Perkin Elmer GF/C filtration plates under vacuum pressure using a 96-well Packard filtration apparatus, followed by washing the filter plates several times with ice cold Assay Buffer. Plates were then dried at 45° C. for a minimum of four hours. Finally, 25 μL of BetaScint scintillation cocktail was added to each well and the plates were counted in a Packard TopCount scintillation counter. In each competition study, test compounds were assayed at 10 concentrations with three replicates at each test concentration.

Sequence of 5-hydroxytryptamine receptor 2A (P28223 whole entry): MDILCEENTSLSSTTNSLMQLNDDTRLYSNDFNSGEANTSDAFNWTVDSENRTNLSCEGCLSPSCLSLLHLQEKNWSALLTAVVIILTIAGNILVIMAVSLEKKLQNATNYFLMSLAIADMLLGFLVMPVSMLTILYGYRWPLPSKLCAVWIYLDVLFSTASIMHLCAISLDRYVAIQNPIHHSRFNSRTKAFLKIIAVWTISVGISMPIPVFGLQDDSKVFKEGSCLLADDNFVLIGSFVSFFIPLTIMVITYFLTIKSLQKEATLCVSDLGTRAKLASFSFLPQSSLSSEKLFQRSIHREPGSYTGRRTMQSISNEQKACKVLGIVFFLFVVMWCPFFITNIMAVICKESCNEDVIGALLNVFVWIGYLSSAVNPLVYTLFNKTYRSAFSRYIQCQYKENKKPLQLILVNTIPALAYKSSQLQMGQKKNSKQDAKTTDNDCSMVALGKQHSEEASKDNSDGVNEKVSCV

CC/C(=C(/C)ON)c1cc(NC(=O)C[C@H]2CCOC2)ccc1OC[C@H]1CCCCN1 [US20240376090, Compound 202]
Ki: 9.81 nM
